# US8981111B2 (priority 2008, dated 2015)
# Test: log P (HPLC/MS data of the preparation examples)
# [1] = LC-MS, method [b]: pH 2.7 with 0.1% formic acid in water and acetonitrile, linear gradient 10% to 95% acetonitrile
# [2] = LC-MS, method [c]: pH 7.8 with 0.001 molar ammonium hydrogen carbonate solution in water, linear gradient 10% to 95% acetonitrile
# [3] = HPLC (LC-MS) method [b]: pH 2.7, 0.1% formic acid in water and acetonitrile, linear gradient 10% to 95% acetonitrile, EEC directive 79/831 Annex V.A8
SMILES,log p [1],also measured
"Cc1ncoc1C(=NOCc1csc(N)n1)c1ccccc1 [Example 351, 4-[({[(4-methyl-1,3-oxazol-5-yl)(phenyl)methylene]amino-}oxy)methyl]-1,3-thiazol-2-amine]",1.46^[b],–
"Cc1ncoc1C(=NOCc1cccc(N2C(=O)c3ccccc3C2=O)n1)c1ccccc1 [Example 352, 2-{6-[({[(4-methyl-1,3-oxazol-5-yl)(phenyl)methylene]amino}oxy)methyl]pyridin-2-yl}-1H-isoindole-1,3(2H)-dione]",–,"chromatographic logP (reversed phase HPLC column, pH 2.7): 3.25"
Cc1ncoc1C(=NOCc1cccc(N2C(=O)c3ccccc3C2=O)n1)c1ccccc1 [Example 353],3.09^[b],–
CCCCC#Cc1cccc(CON=C(c2ccccc2)c2nncn2C)n1 [Example 354],3.23^[b],–
COc1ccc(C(=NOCc2cccc(N3C(=O)c4ccccc4C3=O)n2)c2ncc(C(F)(F)F)cc2Cl)cc1Br [Example 356],4.78^[b],–
COc1ccc(C(=NOCc2csc(N)n2)c2ncc(C(F)(F)F)cc2Cl)cc1Br [Example 357],2.8^[b],–
COc1ccc(C(=NOCc2cccc(N)n2)c2ncc(C(F)(F)F)cc2Cl)cc1Br [Example 358],2.54^[b],–
COc1ccc(C(=NOCc2cccc(NC(=O)C(C)(C)C)n2)c2ncc(C(F)(F)F)cc2Cl)cc1Br [Example 359],5.2^[b],–
COc1ccc(C(=NOCc2cccc(NC(=O)C3CC3)n2)c2ncc(C(F)(F)F)cc2Cl)cc1Br [Example 360],4.54^[b],–
COc1ccc(C(=NOCc2cccc(NC(=O)C(F)(F)F)n2)c2ncc(C(F)(F)F)cc2Cl)cc1Br [Example 361],4.97^[b],–
COCCOCC(=O)Nc1cccc(CON=C(c2ccc(OC)c(Br)c2)c2ncc(C(F)(F)F)cc2Cl)n1 [Example 362],4.51^[b],–
CCCCCOC(=O)Nc1cccc(CON=C(c2ccc(OC)c(Br)c2)c2ncc(C(F)(F)F)cc2Cl)n1 [Example 363],6.13^[b],–
COc1ccc(C(=NOCc2cccc(NC(=O)c3ccccc3)n2)c2ncc(C(F)(F)F)cc2Cl)cc1Br [Example 364],5.23^[b],–
COc1ccc(C(=NOCc2cccc(NC(=O)Cc3ccccc3)n2)c2ncc(C(F)(F)F)cc2Cl)cc1Br [Example 365],5.08^[b],–
CCCCCCCCC(=O)Nc1cccc(CON=C(c2ccc(OC)c(Br)c2)c2ncc(C(F)(F)F)cc2Cl)n1 [Example 366],6.65^[b],–
COc1ccc(C(=NOCc2cccc(NC(=O)C(C)C)n2)c2ncc(C(F)(F)F)cc2Cl)cc1Br [Example 367],4.73^[b],–
CCCCCC(=O)Nc1cccc(CON=C(c2ccc(OC)c(Br)c2)c2ncc(C(F)(F)F)cc2Cl)n1 [Example 368],5.44^[b],–
CCCCCCC(=O)Nc1cccc(CON=C(c2ccc(OC)c(Br)c2)c2ncc(C(F)(F)F)cc2Cl)n1 [Example 369],5.82^[b],–
COc1ccc(C(=NOCc2cccc(NC(=O)CC(C)C)n2)c2ncc(C(F)(F)F)cc2Cl)cc1Br [Example 370],5.03^[b],–
CCCCCOC(=O)Nc1nc(CON=C(c2ccc(OC)c(Br)c2)c2ncc(C(F)(F)F)cc2Cl)cs1 [Example 371],5.59^[b],–
Cc1cnc(C)c(C(=NOCc2cccc(N3C(=O)c4ccccc4C3=O)n2)c2ccccc2)n1 [Example 372],3.35^[b],–
Cc1cnc(C)c(C(=NOCc2cccc(N)n2)c2ccccc2)n1 [Example 373],1.31^[b],–
CCCOC(=O)Nc1cccc(CON=C(c2ccccc2)c2nc(C)cnc2C)n1 [Example 374],3.81^[b],–
CCCCCCOC(=O)Nc1cccc(CON=C(c2ccccc2)c2nc(C)cnc2C)n1 [Example 375],5.2^[b],–
CCCCOC(=O)Nc1cccc(CON=C(c2ccccc2)c2nc(C)cnc2C)n1 [Example 376],4.29^[b],–
CCCCCC(=O)Nc1cccc(CON=C(c2ccccc2)c2nc(C)cnc2C)n1 [Example 377],4.09^[b],–

SMILES,log p [1],also measured
CCCCCOC(=O)Nc1cccc(CON=C(c2ccccc2)c2nc(C)cnc2C)n1 [Example 378],4.75^[b],–
CCCCC(=O)Nc1cccc(CON=C(c2ccccc2)c2nc(C)cnc2C)n1 [Example 379],3.65^[b],–
CCCCCCC(=O)Nc1cccc(CON=C(c2ccccc2)c2nc(C)cnc2C)n1 [Example 380],4.54^[b],–
CCCC(=O)Nc1cccc(CON=C(c2ccccc2)c2nc(C)cnc2C)n1 [Example 381],3.21^[b],–
Nc1ccnc(CON=C(c2ccsc2)c2snc(Cl)c2Cl)n1 [Example 382],1.86^[b],–
Nc1nc(CON=C(c2ccsc2)c2snc(Cl)c2Cl)cs1 [Example 383],2.51^[b],–
CC(C)(C)C(=O)Nc1ccnc(CON=C(c2ccsc2)c2snc(Cl)c2Cl)n1 [Example 384],4.67^[b],–
Cn1ccnc1C(=NOCc1cccc(N2C(=O)c3ccccc3C2=O)n1)c1cccs1 [Example 385],1.78^[b],–
Cn1ccnc1C(=NOCc1nccc(N)n1)c1cccs1 [Example 386],–,log p [2]: 1.13^[c]
Cn1ccnc1C(=NOCc1cccc(N)n1)c1cccs1 [Example 387],–,log p [2]: 1.74^[c]
CCCCCC(=O)Nc1ccnc(CON=C(c2cccs2)c2nccn2C)n1 [Example 388],1.93^[b],–
CC(C)CC(=O)Nc1ccnc(CON=C(c2cccs2)c2nccn2C)n1 [Example 389],1.59^[b],–
Cn1ccnc1C(=NOCc1nccc(NC(=O)C(C)(C)C)n1)c1cccs1 [Example 390],1.56^[b],–
Cn1ncnc1C(=NOCc1cccc(N)n1)c1cccs1 [Example 391],0.82^[b],–
Cn1ncnc1C(=NOCc1cccc(NC(=O)CCc2ccccc2)n1)c1cccs1 [Example 392],3.17^[b],–
CCCCCC(=O)Nc1cccc(CON=C(c2cccs2)c2ncnn2C)n1 [Example 393],3.23^[b],–
CCCCCOC(=O)Nc1cccc(CON=C(c2cccs2)c2ncnn2C)n1 [Example 394],3.82^[b],–
Cn1ncnc1C(=NOCc1cccc(NC(=O)C(C)(C)C)n1)c1cccs1 [Example 395],2.82^[b],–
CC(C)CC(=O)Nc1cccc(CON=C(c2cccs2)c2ncnn2C)n1 [Example 396],2.78^[b],"log p (HPLC, method [a]: pH 2.3 with 0.1% phosphoric acid and acetonitrile as eluent): 2.78^[a];"
Cn1ncnc1C(=NOCc1nccc(N)n1)c1cccs1 [Example 397],0.47^[b],–
Cn1ncnc1C(=NOCc1csc(N)n1)c1cccs1 [Example 398],0.92^[b],–
CCCCCC(=O)Nc1nc(CON=C(c2cccs2)c2ncnn2C)cs1 [Example 399],3.23^[b],–
CCCCCOC(=O)Nc1nc(CON=C(c2cccs2)c2ncnn2C)cs1 [Example 400],3.53^[b],–
Cn1ncnc1C(=NOCc1csc(NC(=O)C(C)(C)C)n1)c1cccs1 [Example 401],2.8^[b],–
Cn1ncnc1C(=NOCc1csc(NC(=O)Cc2ccccc2)n1)c1cccs1 [Example 402],2.82^[b],–
Cn1ncnc1C(=NOCc1csc(NC(=O)CCc2ccccc2)n1)c1cccs1 [Example 403],3.09^[b],–

SMILES,log p [1],also measured
CC(C)CC(=O)Nc1nc(CON=C(c2cccs2)c2ncnn2C)cs1 [Example 404],2.73^[b],–
CCCCCC(=O)Nc1ccnc(CON=C(c2cccs2)c2ncnn2C)n1 [Example 405],3^[b],–
CCCCCOC(=O)Nc1ccnc(CON=C(c2cccs2)c2ncnn2C)n1 [Example 406],3.31^[b],–
Cn1ncnc1C(=NOCc1nccc(NC(=O)C(C)(C)C)n1)c1cccs1 [Example 407],2.59^[b],–
Cn1ncnc1C(=NOCc1nccc(NC(=O)Cc2ccccc2)n1)c1cccs1 [Example 408],2.64^[b],–
Cn1ncnc1C(=NOCc1nccc(NC(=O)CCc2ccccc2)n1)c1cccs1 [Example 409],2.9^[b],–
CC(C)CC(=O)Nc1ccnc(CON=C(c2cccs2)c2ncnn2C)n1 [Example 410],2.56^[b],–
CCCCCOC(=O)Nc1cccc(CON=C(c2cccs2)c2nccn2C)n1 [Example 411],2.71^[b],–
CC(C)CC(=O)Nc1cccc(CON=C(c2cccs2)c2nccn2C)n1 [Example 412],1.91^[b],–
Cn1ccnc1C(=NOCc1cccc(NC(=O)C(C)(C)C)n1)c1cccs1 [Example 413],1.78^[b],–
Cn1ccnc1C(=NOCc1cccc(NC(=O)Cc2ccccc2)n1)c1cccs1 [Example 414],2.05^[b],–
CC(C)C(=O)Nc1cccc(CON=C(c2cccs2)c2nccn2C)n1 [Example 415],–,log p [3]: 1.65^[b]
Cn1ncnc1C(=NOCc1cccc(N2C(=O)c3ccccc3C2=O)n1)c1cccs1 [Example 416],–,log p [3]: 2.64^[b]
Cn1cncc1C(=NOCc1cccc(N2C(=O)c3ccccc3C2=O)n1)c1ccsc1 [Example 417],–,log p [3]: 1.73^[b]
Cn1cncc1C(=NOCc1cccc(N2C(=O)c3ccccc3C2=O)n1)c1cccs1 [Example 420],–,log p [3]: 1.66^[b]
Cn1cncc1C(=NOCc1csc(N)n1)c1cccs1 [Example 421],–,log p [3]: 0.22^[b]
Cn1cncc1C(=NOCc1csc(N)n1)c1ccsc1 [Example 422],–,log p [3]: 0.45^[b]
Cn1cncc1C(=NOCc1cccc(N)n1)c1cccs1 [Example 423],–,log p [3]: 0.08^[b]
CCCCCOC(=O)Nc1cccc(CON=C(c2ccsc2)c2cncn2C)n1 [Example 425],–,log p [3]: 2.82^[b]
CCCCCC(=O)Nc1nc(CON=C(c2ccsc2)c2cncn2C)cs1 [Example 428],–,log p [3]: 1.99^[b]
CCCCCC(=O)Nc1nc(CON=C(c2cccs2)c2cncn2C)cs1 [Example 429],–,log p [3]: 1.93^[b]
Cn1cncc1C(=NOCc1cccc(NC(=O)COc2ccccc2)n1)c1cccs1 [Example 431],–,log p [3]: 1.94^[b]
CC(C)C(=O)Nc1nc(CON=C(c2cccs2)c2cncn2C)cs1 [Example 433],–,log p [3]: 1.53^[b]
Cn1cncc1C(=NOCc1csc(NC(=O)COc2ccccc2)n1)c1cccs1 [Example 434],–,log p [3]: 1.87^[b]
